# Test results as given in PubChem BioAssay (NCI).
#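 Assay format: 96-well plates, 48-hour exposure. GI50: concentration for 50% inhibition of growth. Definition used: TGI = concentration required for complete inhibition of growth.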
# How the values were obtained:
# Experiment in all cases: NCI tumour cell line growth inhibition, 48 h
# 786-0 renal = system: 786-0 renal
# A498 renal = system: A498 renal
# A549 NSCLC = system: A549 NSCLC
# ACHN renal = system: ACHN renal
# CAKI-1 renal = system: CAKI-1 renal
# CCRF-CEM leukemia = system: CCRF-CEM leukemia
# DLD-1 colon = system: DLD-1 colon
# DMS 114 small cell lung = system: DMS 114 small cell lung
# DMS 273 small cell lung = system: DMS 273 small cell lung
# EKVX NSCLC = system: EKVX NSCLC
# HCC-2998 colon = system: HCC-2998 colon
# HCT-116 colon = system: HCT-116 colon
# HCT-15 colon = system: HCT-15 colon
# HL-60(TB) leukemia = system: HL-60(TB) leukemia
# HOP-18 NSCLC = system: HOP-18 NSCLC
# HOP-62 NSCLC = system: HOP-62 NSCLC
# HT29 colon = system: HT29 colon
# IGROV1 ovarian = system: IGROV1 ovarian
# K-562 leukemia = system: K-562 leukemia
# KM12 colon = system: KM12 colon
# KM20L2 colon = system: KM20L2 colon
# LOX IMVI melanoma = system: LOX IMVI melanoma
# LXFL 529 NSCLC = system: LXFL 529 NSCLC
# M14 melanoma = system: M14 melanoma
# M19-MEL melanoma = system: M19-MEL melanoma
# MALME-3M melanoma = system: MALME-3M melanoma
# MOLT-4 leukemia = system: MOLT-4 leukemia
# NCI-H23 lung = system: NCI-H23 lung
# NCI-H460 lung = system: NCI-H460 lung
# OVCAR-4 ovarian = system: OVCAR-4 ovarian
# OVCAR-5 ovarian = system: OVCAR-5 ovarian
# OVCAR-8 ovarian = system: OVCAR-8 ovarian
# RPMI-8226 leukemia = system: RPMI-8226 leukemia
# RXF 393 renal = system: RXF 393 renal
# RXF-631 renal = system: RXF-631 renal
# SF-268 CNS = system: SF-268 CNS
# SF-295 CNS = system: SF-295 CNS
# SF-539 CNS = system: SF-539 CNS
# SK-MEL-2 melanoma = system: SK-MEL-2 melanoma
# SK-MEL-28 melanoma = system: SK-MEL-28 melanoma
# SK-MEL-5 melanoma = system: SK-MEL-5 melanoma
# SK-OV-3 ovarian = system: SK-OV-3 ovarian
# SN12C renal = system: SN12C renal
# SNB-19 CNS = system: SNB-19 CNS
# SNB-75 CNS = system: SNB-75 CNS
# SNB-78 CNS = system: SNB-78 CNS
# SR leukemia = system: SR leukemia
# SW-620 colon = system: SW-620 colon
# TK-10 renal = system: TK-10 renal
# U251 CNS = system: U251 CNS
# UACC-257 melanoma = system: UACC-257 melanoma
# UACC-62 melanoma = system: UACC-62 melanoma
# UO-31 renal = system: UO-31 renal
# XF 498 CNS = system: XF 498 CNS
# COLO 205 colon = system: COLO 205 colon
# HOP-92 NSCLC = system: HOP-92 NSCLC
# MCF7 breast = system: MCF7 breast
# NCI-H226 lung = system: NCI-H226 lung
# NCI-H522 lung = system: NCI-H522 lung
# NCI/ADR-RES ovarian = system: NCI/ADR-RES ovarian
# OVCAR-3 ovarian = system: OVCAR-3 ovarian
# P388 leukemia = system: P388 leukemia
# P388/ADR leukemia = system: P388/ADR leukemia
# SN12K1 renal = system: SN12K1 renal
smiles,measurement,setting,value
CC(C)(C)c1cc(Cc2ccc([N+](C)(C)C)cc2)c(O)c(C(C)(C)C)c1,TGI,786-0 renal,57.7 µM
same,TGI,A498 renal,> 100 µM
same,TGI,A549 NSCLC,> 100 µM
same,TGI,ACHN renal,> 100 µM
same,TGI,CAKI-1 renal,> 100 µM
same,TGI,CCRF-CEM leukemia,29.1 µM
same,TGI,DLD-1 colon,> 100 µM
same,TGI,DMS 114 small cell lung,20.2 µM
same,TGI,DMS 273 small cell lung,22.2 µM
same,TGI,EKVX NSCLC,> 100 µM
same,TGI,HCC-2998 colon,29.9 µM
same,TGI,HCT-116 colon,31.5 µM
same,TGI,HCT-15 colon,> 100 µM
same,TGI,HL-60(TB) leukemia,8.27 µM
same,TGI,HOP-18 NSCLC,47.3 µM
same,TGI,HOP-62 NSCLC,33.5 µM
same,TGI,HT29 colon,32.7 µM
same,TGI,IGROV1 ovarian,28.1 µM
same,TGI,K-562 leukemia,28.1 µM
same,TGI,KM12 colon,29.6 µM
same,TGI,KM20L2 colon,74.8 µM
same,TGI,LOX IMVI melanoma,30.6 µM
same,TGI,LXFL 529 NSCLC,27.1 µM
same,TGI,M14 melanoma,40.9 µM
same,TGI,M19-MEL melanoma,26.6 µM
same,TGI,MALME-3M melanoma,34.2 µM
same,TGI,MOLT-4 leukemia,26.1 µM
same,TGI,NCI-H23 lung,36.1 µM
same,TGI,NCI-H460 lung,37.9 µM
same,TGI,OVCAR-4 ovarian,> 100 µM
same,TGI,OVCAR-5 ovarian,59.7 µM
same,TGI,OVCAR-8 ovarian,35.9 µM
same,TGI,RPMI-8226 leukemia,31.9 µM
same,TGI,RXF 393 renal,38.4 µM
same,TGI,RXF-631 renal,> 100 µM
same,TGI,SF-268 CNS,28.5 µM
same,TGI,SF-295 CNS,67.5 µM
same,TGI,SF-539 CNS,30.5 µM
same,TGI,SK-MEL-2 melanoma,30.2 µM
same,TGI,SK-MEL-28 melanoma,25 µM
same,TGI,SK-MEL-5 melanoma,22.9 µM
same,TGI,SK-OV-3 ovarian,95.1 µM
same,TGI,SN12C renal,28.7 µM
same,TGI,SNB-19 CNS,25.9 µM
same,TGI,SNB-75 CNS,22.1 µM
same,TGI,SNB-78 CNS,31.3 µM
same,TGI,SR leukemia,29.8 µM
same,TGI,SW-620 colon,59.2 µM
same,TGI,TK-10 renal,78.4 µM
same,TGI,U251 CNS,25.4 µM
same,TGI,UACC-257 melanoma,31.7 µM
same,TGI,UACC-62 melanoma,27.9 µM
same,TGI,UO-31 renal,> 100 µM
same,TGI,XF 498 CNS,25.9 µM
Cc1ncc(CO)c(C=NCCCCCCN=Cc2c(CO)cnc(C)c2[O-])c1[O-].[Cu+2],TGI,A498 renal,> 100 µM
same,TGI,A549 NSCLC,> 100 µM
same,TGI,CAKI-1 renal,> 100 µM
same,TGI,CCRF-CEM leukemia,> 31.6 µM
same,TGI,COLO 205 colon,> 100 µM
same,GI50,DLD-1 colon,> 82.9 µM
same,TGI,DLD-1 colon,> 100 µM
same,GI50,DMS 114 small cell lung,> 47.7 µM
same,TGI,DMS 114 small cell lung,> 77.6 µM
same,GI50,DMS 273 small cell lung,> 66.9 µM
same,TGI,DMS 273 small cell lung,> 100 µM
same,TGI,EKVX NSCLC,> 100 µM
same,TGI,HCC-2998 colon,> 100 µM
same,TGI,HCT-116 colon,> 100 µM
same,TGI,HCT-15 colon,> 100 µM
same,TGI,HL-60(TB) leukemia,> 100 µM
same,GI50,HOP-18 NSCLC,> 100 µM
same,TGI,HOP-18 NSCLC,> 100 µM
same,TGI,HOP-62 NSCLC,> 100 µM
same,TGI,HOP-92 NSCLC,> 87.9 µM
same,TGI,HT29 colon,> 100 µM
same,TGI,IGROV1 ovarian,> 100 µM
same,TGI,K-562 leukemia,> 100 µM
same,TGI,KM12 colon,> 100 µM
same,GI50,KM20L2 colon,> 83.9 µM
same,TGI,KM20L2 colon,> 100 µM
same,TGI,LOX IMVI melanoma,> 94.3 µM
same,GI50,M19-MEL melanoma,28.6 µM
same,TGI,M19-MEL melanoma,> 31.6 µM
same,TGI,MALME-3M melanoma,> 100 µM
same,TGI,MCF7 breast,> 100 µM
same,TGI,MOLT-4 leukemia,> 100 µM
same,TGI,NCI-H226 lung,> 100 µM
same,TGI,NCI-H23 lung,> 100 µM
same,TGI,NCI-H460 lung,> 100 µM
same,TGI,NCI-H522 lung,> 100 µM
same,TGI,NCI/ADR-RES ovarian,> 100 µM
same,TGI,OVCAR-3 ovarian,> 100 µM
same,TGI,OVCAR-4 ovarian,> 100 µM
same,TGI,OVCAR-5 ovarian,> 100 µM
same,TGI,OVCAR-8 ovarian,> 100 µM
same,GI50,P388 leukemia,18.9 µM
same,TGI,P388 leukemia,94.2 µM
same,GI50,P388/ADR leukemia,25.7 µM
same,TGI,P388/ADR leukemia,> 100 µM
same,TGI,RPMI-8226 leukemia,> 100 µM
same,TGI,RXF 393 renal,> 100 µM
same,TGI,SF-268 CNS,> 100 µM
same,TGI,SF-295 CNS,> 100 µM
same,TGI,SF-539 CNS,> 100 µM
same,TGI,SK-MEL-2 melanoma,> 100 µM
same,TGI,SK-MEL-28 melanoma,> 100 µM
same,TGI,SK-MEL-5 melanoma,> 79.1 µM
same,TGI,SK-OV-3 ovarian,> 100 µM
same,TGI,SN12C renal,> 100 µM
same,GI50,SN12K1 renal,> 100 µM
same,TGI,SN12K1 renal,> 100 µM
same,TGI,SNB-19 CNS,> 100 µM
same,TGI,SNB-75 CNS,> 100 µM
same,GI50,SNB-78 CNS,41.3 µM
same,TGI,SNB-78 CNS,> 100 µM
same,TGI,SW-620 colon,> 100 µM
same,TGI,U251 CNS,> 70.9 µM
same,TGI,UACC-257 melanoma,> 100 µM
same,TGI,UACC-62 melanoma,> 100 µM
same,TGI,UO-31 renal,> 100 µM
